From patent US20120214830A1, “BIOLOGICAL MARKERS PREDICTIVE OF ANTI-CANCER RESPONSE TO INSULIN-LIKE GROWTH FACTOR-1 RECEPTOR KINASE INHIBITORS IN HEPATOCELLULAR CARCINOMA” (OSI Pharmaceuticals, LLC, priority 2011, published 2012)
Where two headings read alike, the source gives them in different places.

Tests used:
[1] = tested on: HUH-1, JHH-5 and HepG2 cells; assay: Proliferation assay with OSI-906 after TGFβ treatment; format: cell-based, human; details: cells grown with 10 ng/ml TGFβ for 10 days, HUH-1, JHH-5, HepG2
Method: (§1) Proliferation Assay. Proliferation was assayed using Cell Titer Glo assays (Promega) and was determined 72 hours following dosing with OSI-906. The basis of the assay is a luminescent quantitation of ATP present in a cell culture plate well. In essence, the greater the number of viable cells in the well, the greater the level of ATP present. The assay utilizes a substrate that binds ATP to produce a luminescent signal, which can be read on a luminometer. Unless otherwise noted, the manufacturer's instructions were followed exactly. Briefly, on Day 1, cells were plated in 120 μl of 10% serum-containing growth media at a density of 4000 cells/well in a white polystyrene 96 well assay plate. On day 2, cells were treated with 15 μl of 10× concentration of the IGF-1R inhibitor (e.g. OSI-906) or DMSO alone for a final well volume of 150 μl. After 72 h incubation with the inhibitor, the cells were assayed. Results were calculated as a fraction of the DMSO controlled cells.

[2] = tested on: tumor xenograft; details: cited from earlier work
[3] = tested on: Huh-6; assay: Cell Titer-Glo proliferation assay, 72 h; format: cell-based; details: Homo sapiens, Huh-6 cells
Method: as §1, with “Cell lines: Twenty-one HCC cell lines were purchased from either ATCC (HepG2, Hep3B, PLC/PRF/5, SK-Hepl, SNU-182, SNU-387, SNU-398, SNU-423, SNU-449, SNU-475) or Health Science Research Resources Bank (Japan) (HUH-1, HUH-6, HUH-7, HLE, HLF, JHH-1, JHH-2, JHH-4, JHH-5, JHH-6, JHH-7). All the cell lines were maintained in media as described by the vendors. For growth inhibition assays, cells were plated and allowed to proliferate for 24 hours. After 24 hours, cells had reached approximately 15% confluency, at which time serial dilutions of OSI-906 were added and the cells grown for a further 72 hours. Cell viability was assayed using the Cell Titer-Glo reagent (Promega Corp., Madison, Wis.). Proliferation Assay.” for “Proliferation Assay.”

[4] = tested on: JHH-1; assay: Cell Titer-Glo proliferation assay, 72 h; format: cell-based; details: Homo sapiens, JHH1, JHH-1 cells
Method: (§2) Two sensitive epithelial cell lines Hep3B (A), JHH-7 (B), one insensitive epithelial cell line JHH-1(C) or one insensitive mesenchymal-like cell line HLF (D) were treated serial dilution of OSI-906 in the presence of Erlotinib for 72 hours, and sensitivity to treatment was measured by proliferation assays.
(§3) Cell lines: Twenty-one HCC cell lines were purchased from either ATCC (HepG2, Hep3B, PLC/PRF/5, SK-Hepl, SNU-182, SNU-387, SNU-398, SNU-423, SNU-449, SNU-475) or Health Science Research Resources Bank (Japan) (HUH-1, HUH-6, HUH-7, HLE, HLF, JHH-1, JHH-2, JHH-4, JHH-5, JHH-6, JHH-7). All the cell lines were maintained in media as described by the vendors. For growth inhibition assays, cells were plated and allowed to proliferate for 24 hours. After 24 hours, cells had reached approximately 15% confluency, at which time serial dilutions of OSI-906 were added and the cells grown for a further 72 hours. Cell viability was assayed using the Cell Titer-Glo reagent (Promega Corp., Madison, Wis.).
as §1

[5] = tested on: Hep 3B; assay: Cell Titer-Glo proliferation assay, 72 h; format: cell-based; details: Homo sapiens, Hep3B, Hep 3B cells
Method: as §2, §3, §1

[6] = tested on: JHH-7; assay: Cell Titer-Glo proliferation assay, 72 h; format: cell-based; details: Homo sapiens, JHH7, JHH-7 cells
Method: as §2, §3, §1

[7] = tested on: HLF; assay: Cell Titer-Glo proliferation assay, 72 h; format: cell-based; details: Homo sapiens, HLF cells
Method: as §2, §3, §1

[8] = tested on: HCC cell lines (HepG2, Hep3B, HUH-1, HUH-6, HUH-7, JHH-5, JHH-7); assay: Cell-titer glo proliferation assay, summary for the seven sensitive HCC cell lines; format: cell-based, human
Method: as §3
Proliferation Assay. Proliferation was assayed using Cell Titer Glo assays (Promega) and was determined 72 hours following dosing with OSI-906. The basis of the assay is a luminescent quantitation of ATP present in a cell culture plate well. […] The assay utilizes a substrate that binds ATP to produce a luminescent signal, which can be read on a luminometer. […] Results were calculated as a fraction of the DMSO controlled cells.
To test cell sensitivity of HCC cells to the IGF-1R kinase inhibitor OSI-906, twenty-one HCC cell lines were treated with different concentration of OSI-906, and cell proliferation was measured by cell-titer glo assays (FIG. 1). […]

EC50 ([3]; 72 h OSI-906): 250 nM
EC50 ([8]; Homo sapiens): < 1000 nM
Compound: C[C@]1(O)C[C@@H](c2nc(-c3ccc4ccc(-c5ccccc5)nc4c3)c3c(N)nccn32)C1 [OSI-906, cis-3-[8-amino-1-(2-phenyl-quinolin-7-yl)-imidazo[1,5-a]pyrazin-3-yl]-1-methyl-cyclobutanol]
HCC cell sensitivity to OSI-906 after TGFβ treatment [1]: decreased
tumor growth inhibition (TGI) ([2]; xenografts of tumor cells with high sensitivity to OSI-906 in culture in vitro): high pencentage tumor growth inhibition
tumor growth inhibition (TGI) ([2]; xenografts of tumor cells with low sensitivity to OSI-906 in culture in vitro): only a low pencentage tumor growth inhibition
inhibition at 5 µM ([3]; 5 μM OSI-906, 72 h): 41%
inhibition at 5 µM ([4]; 5 μM OSI-906, 72 h): < 40%
EC50 ([4]; 72 h OSI-906): > 10000 nM
inhibition at 5 µM ([5]; 5 μM OSI-906, 72 h): 67%
EC50 ([5]; 72 h OSI-906): 350 nM
inhibition at 5 µM ([6]; 5 μM OSI-906, 72 h): 70%
EC50 ([6]; 72 h OSI-906): 940 nM
inhibition at 5 µM ([7]; 5 μM OSI-906, 72 h): < 40%
EC50 ([7]; 72 h OSI-906): > 10000 nM
maximum inhibition [8]: > 40%
